According to patent US20240376091A1, “THIADIAZOLEAMIDE DERIVATIVES AND THEIR APPLICATIONS” (ZHEJIANG UNIVERSITY, priority 2021, published 2024):

These compounds were tested against T1, AR (Homo sapiens, UniProt P10275, T878A) (assay: AR transcriptional activity, LNCaP-ARR2PB-eGFP reporter cells). Conditions: read-out: IC50 AR transcriptional activities.
T1 construct: into the androgen-dependent PCa cells (LNCaP); endogenous in cells; host or cells: LNCaP-ARR2PB-eGFP
T1 sequence (P10275 1-920 T878A): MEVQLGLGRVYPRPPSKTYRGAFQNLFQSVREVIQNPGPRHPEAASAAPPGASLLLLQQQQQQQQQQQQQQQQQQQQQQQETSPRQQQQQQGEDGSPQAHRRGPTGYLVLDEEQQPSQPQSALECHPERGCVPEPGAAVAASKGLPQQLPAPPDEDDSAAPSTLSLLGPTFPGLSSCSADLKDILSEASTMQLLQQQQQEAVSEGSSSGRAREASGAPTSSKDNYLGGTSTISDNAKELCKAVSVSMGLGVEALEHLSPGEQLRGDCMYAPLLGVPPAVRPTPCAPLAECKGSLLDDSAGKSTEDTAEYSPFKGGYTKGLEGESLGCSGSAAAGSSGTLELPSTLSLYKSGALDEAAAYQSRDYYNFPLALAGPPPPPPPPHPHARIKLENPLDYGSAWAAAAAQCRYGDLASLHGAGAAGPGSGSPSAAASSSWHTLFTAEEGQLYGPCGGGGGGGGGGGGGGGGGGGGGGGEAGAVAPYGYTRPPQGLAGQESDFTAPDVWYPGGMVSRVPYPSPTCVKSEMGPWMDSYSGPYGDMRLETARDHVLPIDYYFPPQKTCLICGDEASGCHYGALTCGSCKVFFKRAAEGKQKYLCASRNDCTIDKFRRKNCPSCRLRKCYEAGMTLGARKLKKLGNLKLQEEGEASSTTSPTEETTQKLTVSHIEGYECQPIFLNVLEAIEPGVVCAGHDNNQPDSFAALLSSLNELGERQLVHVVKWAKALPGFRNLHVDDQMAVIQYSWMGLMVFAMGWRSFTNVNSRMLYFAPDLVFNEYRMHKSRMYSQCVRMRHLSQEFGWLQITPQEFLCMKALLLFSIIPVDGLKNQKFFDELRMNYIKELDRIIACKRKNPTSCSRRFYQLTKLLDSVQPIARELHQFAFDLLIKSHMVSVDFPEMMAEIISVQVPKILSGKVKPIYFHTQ
Type: cell-based
Source text: Detection principles: We conducted a stable transfection of promoter ARR2PB known for its strong AR responsiveness, into the androgen-dependent PCa cells (LNCaP). The expression of enhanced green fluorescent protein (eGFP) is depending on the degree of activation of AR. Therefore, LNCaP-ARR2PB-eGFP cell line could quantitatively determine the AR antagonistic activities of the compounds by evaluating the expression of eGFP.

Compound | IC50
Cc1oc(-c2cccc(C(F)(F)F)c2)cc1C(=O)Nc1nc(CC(C)N2CCCCC2)ns1 (centres unmarked) [Compound A-41, 2-Methyl-N-(3-(2-(piperidin-1-yl)propyl)-1,2,4-thiadiazol-5-yl)-5-(3-(trifluoromethyl)phenyl)furan-3-carboxamide] | 170 nM
Cc1oc(-c2cccc(C(F)(F)F)c2)cc1C(=O)Nc1nc(CC(C)N2CCOCC2)ns1 (centres unmarked) [Compound A-42, 2-Methyl-N-(3-(2-morpholinopropyl)-1,2,4-thiadiazol-5-yl)-5-(3-(trifluoromethyl)phenyl) furan-3-carboxamide] | 360 nM
Cc1oc(-c2cccc(C(F)(F)F)c2)cc1C(=O)Nc1nc(CC(C)N2CCN(C)CC2)ns1 (centres unmarked) [Compound A-43, 2-Methyl-N-(3-(2-(4-methylpiperazin-1-yl)propyl)-1,2,4-thiadiazol-5-yl)-5-(3-(trifluoro-methyl)phenyl)furan-3-carboxamide] | 40 nM
Cc1oc(-c2cccc(OC(F)(F)F)c2)cc1C(=O)Nc1nc(CC(C)N(C)C)ns1 (centres unmarked) [Compound A-44, N-(3-(2-(dimethylamino)propyl)-1,2,4-thiadiazol-5-yl)-2-methyl-5-(3-(trifluoromethoxy)phenyl)furan-3-carboxamide] | 60 nM
CCN(CC)C(C)Cc1nsc(NC(=O)c2cc(-c3cccc(OC(F)F)c3)oc2C)n1 (centres unmarked) [Compound A-45, N-(3-(2-(diethylamino)propyl)-1,2,4-thiadiazol-5-yl)-5-(3-(difluoromethoxy)phenyl)-2-methylfuran-3-carboxamide] | 40 nM
Cc1oc(-c2cccc(C#N)c2)cc1C(=O)Nc1nc(CC(C)N2CCCC2)ns1 (centres unmarked) [Compound A-46, 5-(3-Cyanophenyl)-2-methyl-N-(3-(2-(pyrrolidin-1-yl)propyl)-1,2,4-thiadiazol-5-yl)furan-3-carboxamide] | 410 nM
COc1cccc(-c2cc(C(=O)Nc3nc(CC(C)N4CCCCC4)ns3)c(C)o2)c1 (centres unmarked) [Compound A-49, 5-(3-Methoxyphenyl)-2-methyl-N-(3-(2-(piperidin-1-yl)propyl)-1,2,4-thiadiazol-5-yl)furan-3-carboxamide] | 210 nM
Cc1oc(-c2cccc(C#N)c2)cc1C(=O)Nc1nc(CC(C)N2CCOCC2)ns1 (centres unmarked) [Compound A-52, 5-(3-Cyanophenyl)-2-methyl-N-(3-(2-morpholinopropyl)-1,2,4-thiadiazol-5-yl)furan-3-carboxamide] | 760 nM
Cc1oc(-c2cccc(C#N)c2)cc1C(=O)Nc1nc(CC(C)N2CCN(C)CC2)ns1 (centres unmarked) [Compound A-56, 5-(3-Cyanophenyl)-2-methyl-N-(3-(2-(4-methylpiperazin-1-yl)propyl)-1,2,4-thiadiazol-5-yl)furan-3-carboxamide] | 840 nM
Cc1oc(-c2cccc(C(F)(F)F)c2)cc1C(=O)Nc1nc(CC(C)O)ns1 (centres unmarked) [Compound A-60, N-(3-(2-hydroxypropyl)-1,2,4-thiadiazol-5-yl)-2-methyl-5-(3-(trifluoromethyl)phenyl)furan-3-carboxamide] | 390 nM
COC(C)Cc1nsc(NC(=O)c2cc(-c3cccc(C(F)(F)F)c3)oc2C)n1 (centres unmarked) [Compound A-61, N-(3-(2-methoxypropyl)-1,2,4-thiadiazol-5-yl)-2-methyl-5-(3-(trifluoromethyl)phenyl)furan-3-carboxamide] | 3820 nM
Cc1oc(-c2cccc(C(F)(F)F)c2)cc1C(=O)Nc1nc(CC(C)N)ns1 (centres unmarked) [Compound A-66, N-(3-(2-aminopropyl)-1,2,4-thiadiazol-5-yl)-2-methyl-5-(3-(trifluoromethyl)phenyl)furan-3-carboxamide] | 1390 nM
C/C(Cc1nsc(NC(=O)c2cc(-c3cccc(C(F)(F)F)c3)oc2C)n1)=N\O [Compound A-69, N-(3-(2-(hydroxyimino)propyl)-1,2,4-thiadiazol-5-yl)-2-methyl-5-(3-(trifluoromethyl)phenyl)furan-3-carboxamide] | 540 nM
CNC(C)Cc1nsc(NC(=O)c2cc(-c3cccc(C(F)(F)F)c3)oc2C)n1 (centres unmarked) [Compound A-96, 2-Methyl-N-(3-(2-(methylamino)propyl)-1,2,4-thiadiazol-5-yl)-5-(3-(trifluoromethyl)phenyl)furan-3-carboxamide] | 160 nM

The next lines start with the values.

IC50 | Compound
880 nM | CO/N=C(\C)Cc1nsc(NC(=O)c2cc(-c3cccc(C(F)(F)F)c3)oc2C)n1 [Compound A-70, N-(3-(2-(methoxyimino)propyl)-1,2,4-thiadiazol-5-yl)-2-methyl-5-(3-(trifluoromethyl)phenyl)furan-3-carboxamide]
810 nM | CC(Cc1nsc(NC(=O)c2cc(-c3cccc(C(F)(F)F)c3)oc2C)n1)=C(F)F [Compound A-80, N-(3-(3,3-difluoro-2-methylallyl)-1,2,4-thiadiazol-5-yl)-2-methyl-5-(3-(trifluoromethyl)phenyl)furan-3-carboxamide]
770 nM | Cc1oc(-c2cccc(C(F)(F)F)c2)cc1C(=O)Nc1nc(CC(C)(F)F)ns1 [Compound A-85, N-(3-(2,2-difluoropropyl)-1,2,4-thiadiazol-5-yl)-2-methyl-5-(3-(trifluoromethyl)phenyl) furan-3-carboxamide]
50 nM | Cc1oc(-c2cccc(C(F)(F)F)c2)cc1C(=O)Nc1nc(CC(C)(C)O)ns1 [Compound A-90, N-(3-(2-hydroxy-2-methylpropyl)-1,2,4-thiadiazol-5-yl)-2-methyl-5-(3-(trifluoromethyl)phenyl)furan-3-carboxamide]
30 nM | Cc1oc(-c2cccc(C(F)(F)F)c2)cc1C(=O)Nc1nc(CC(C)(C)N)ns1 [Compound A-93, N-(3-(2-amino-2-methylpropyl)-1,2,4-thiadiazol-5-yl)-2-methyl-5-(3-(trifluoromethyl)phenyl)furan-3-carboxamide]
10400 nM | Cc1oc(-c2cccc(C(F)(F)F)c2)cc1C(=O)Nc1ncns1 [Compound A-99, 2-Methyl-N-(1,2,4-thiadiazol-5-yl)-5-(3-(trifluoromethyl)phenyl)furan-3-carboxamide]
22900 nM | Cc1oc(-c2cccc(C(F)(F)F)c2)cc1C(=O)Nc1nc(CCl)ns1 [Compound A-105, N-(3-(chloromethyl)-1,2,4-thiadiazol-5-yl)-2-methyl-5-(3-(trifluoromethyl)phenyl)furan-3-carboxamide]
1670 nM | Cc1oc(-c2cccc(C(F)(F)F)c2)cc1C(=O)Nc1nc(CN(C)C)ns1 [Compound A-106, N-(3-((dimethylamino)methyl)-1,2,4-thiadiazol-5-yl)-2-methyl-5-(3-(trifluoromethyl)phenyl)furan-3-carboxamide]
1770 nM | CCN(CC)Cc1nsc(NC(=O)c2cc(-c3cccc(C(F)(F)F)c3)oc2C)n1 [Compound A-107, N-(3-((diethylamino)methyl)-1,2,4-thiadiazol-5-yl)-2-methyl-5-(3-(trifluoromethyl)phenyl)furan-3-carboxamide]
840 nM | Cc1oc(-c2cccc(C(F)(F)F)c2)cc1C(=O)Nc1nc(CN2CCCC2)ns1 [Compound A-108, 2-Methyl-N-(3-(pyrrolidin-1-ylmethyl)-1,2,4-thiadiazol-5-yl)-5-(3-(trifluoromethyl)phenyl)furan-3-carboxamide]
250 nM | Cc1oc(-c2cccc(C(F)(F)F)c2)cc1C(=O)Nc1nc(CN2CCOCC2)ns1 [Compound A-110, 2-Methyl-N-(3-(morpholinomethyl)-1,2,4-thiadiazol-5-yl)-5-(3-(trifluoromethyl)phenyl) furan-3-carboxamide]
570 nM | Cc1oc(-c2cccc(C(F)(F)F)c2)cc1C(=O)Nc1nc(CN2CCN(C)CC2)ns1 [Compound A-111, 2-Methyl-N-(3-((4-methylpiperazin-1-yl)methyl)-1,2,4-thiadiazol-5-yl)-5-(3-(trifluoro-methyl)phenyl)furan-3-carboxamide]
1870 nM | Cc1oc(-c2cccc(C#N)c2)cc1C(=O)Nc1nc(CCl)ns1 [Compound A-112, N-(3-(chloromethyl)-1,2,4-thiadiazol-5-yl)-5-(3-cyanophenyl)-2-methylfuran-3-carboxamide]
2230 nM | COc1cccc(-c2cc(C(=O)Nc3nc(CN(C)C)ns3)c(C)o2)c1 [Compound A-118, N-(3-((dimethylamino)methyl)-1,2,4-thiadiazol-5-yl)-5-(3-methoxyphenyl)-2-methylfuran-3-carboxamide]
590 nM | CCN(CC)Cc1nsc(NC(=O)c2cc(-c3cccc(OC(F)(F)F)c3)oc2C)n1 [Compound A-123, N-(3-((diethylamino)methyl)-1,2,4-thiadiazol-5-yl)-2-methyl-5-(3-(trifluoromethoxy)phenyl)furan-3-carboxamide]
